Experimental data from ChEMBL document CHEMBL3045326, “Avocadofurans and their tetrahydrofuran analogues: comparison of growth inhibitory and insecticidal activity” (2000).
Activity calls are given as the source filed them. The rule behind the calls is not given here.

Columns and labels:
Spodoptera exigua [1] = test: Insecticidal activity against Spodoptera exigua larvae assessed as induction of larval mortality at 5 umol/g of diet administered through compound containing diet after 7 days; type: functional, organism-based
Spodoptera exigua [2] = test: Insecticidal activity against young Spodoptera exigua larvae assessed per ug of diet; type: functional
Spodoptera exigua [3] = test: Insecticidal activity against Spodoptera exigua larvae assessed as inhibition of larval growth at 5 umol/g of diet administered through compound containing diet after 7 days; type: functional
Spodoptera exigua [4] = test: Insecticidal activity against older Spodoptera exigua larvae assessed per ug of diet; type: functional

SMILES | Activity (Spodoptera exigua [1]) | LC50 (Spodoptera exigua [2]) [nM] | growth inhibition (GI) (Spodoptera exigua [3]) | LC50 (Spodoptera exigua [4]) [nM]
CCCCCCCCCCCCCCCCCc1ccco1 [2-(HEPTADECYL)FURAN] | Active | ≥ 2000 | 93% | > 3000
CCCCCCCCCCCCCCCCC1CCCO1 (stereo not drawn) | – | – | inactive | –
CCCCCCCCCCCCCCCCCC1CCCO1 (stereo not drawn) [2-(HEPTADECYL)TETRAHYDROFURAN] | – | – | 59% | –
CCCCCCCCCCCCCCCCCCC1CCCO1 (stereo not drawn) | – | – | Active | –
CCCCCCCCCCCCCCCC1CCCO1 (stereo not drawn) [2-PENTADECYLTETRAHYDROFURAN] | – | – | 45% | –
CCCCCCCCCCCCCCCc1ccco1 | Active | ≥ 2000 | 98% | > 3000
CCCCCCCCCCCCCCC1CCCO1 (stereo not drawn) | – | – | inactive | –
